Measurements as given in PMC7462607 (eLife, 2020).
Read-outs that look alike come from different tables or passages of the source.

Experiments:
[1] = system: CDK12KD/CCNKΔC (WT or G731E/R); assay: Nano DSF; type: binding, human; conditions: increasing concentrations of HQ461
Method: CDK12KD/CCNKΔC (WT or G731E/R) or DDB1ΔBPB were diluted with DSF assay buffer (50 mM HEPES pH 7.5, 300 mM NaCl, 0.5 mM TCEP) to 3.6 µM and mixed with diluted HQ461 (final DMSO concentration 2%). Tryptophan fluorescence was measured using Tycho NT.6 (NanoTemper, South San Francisco, USA). During the thermal shift experiment, temperature was increased from 35°C to 95°C and fluorescence was scanned at 350 nm and 330 nm. Ti (inflection temperature of the unfolding transition) was calculated from the 350 nm/330 nm ratio.

[2] = molecular target: T1, CDK12/CCNK with DDB1-CUL4-RBX1 (Homo sapiens, UniProt Q9NYV4); assay: In vitro ubiquitination of CCNK; type: biochemical; conditions: E1, E2, E3 and HQ461 present
T1 construct: made in house; host or cells: 293F cells (CDK12/CCNK, UBA1, UBE2G1, UBE2D3, CUL4A/RBX1); Sf9 (His-DDB1); E. coli BL21(DE3) (His-ubiquitin)
T1 sequence (Q9NYV4 1-1481 isoform Q9NYV4-2): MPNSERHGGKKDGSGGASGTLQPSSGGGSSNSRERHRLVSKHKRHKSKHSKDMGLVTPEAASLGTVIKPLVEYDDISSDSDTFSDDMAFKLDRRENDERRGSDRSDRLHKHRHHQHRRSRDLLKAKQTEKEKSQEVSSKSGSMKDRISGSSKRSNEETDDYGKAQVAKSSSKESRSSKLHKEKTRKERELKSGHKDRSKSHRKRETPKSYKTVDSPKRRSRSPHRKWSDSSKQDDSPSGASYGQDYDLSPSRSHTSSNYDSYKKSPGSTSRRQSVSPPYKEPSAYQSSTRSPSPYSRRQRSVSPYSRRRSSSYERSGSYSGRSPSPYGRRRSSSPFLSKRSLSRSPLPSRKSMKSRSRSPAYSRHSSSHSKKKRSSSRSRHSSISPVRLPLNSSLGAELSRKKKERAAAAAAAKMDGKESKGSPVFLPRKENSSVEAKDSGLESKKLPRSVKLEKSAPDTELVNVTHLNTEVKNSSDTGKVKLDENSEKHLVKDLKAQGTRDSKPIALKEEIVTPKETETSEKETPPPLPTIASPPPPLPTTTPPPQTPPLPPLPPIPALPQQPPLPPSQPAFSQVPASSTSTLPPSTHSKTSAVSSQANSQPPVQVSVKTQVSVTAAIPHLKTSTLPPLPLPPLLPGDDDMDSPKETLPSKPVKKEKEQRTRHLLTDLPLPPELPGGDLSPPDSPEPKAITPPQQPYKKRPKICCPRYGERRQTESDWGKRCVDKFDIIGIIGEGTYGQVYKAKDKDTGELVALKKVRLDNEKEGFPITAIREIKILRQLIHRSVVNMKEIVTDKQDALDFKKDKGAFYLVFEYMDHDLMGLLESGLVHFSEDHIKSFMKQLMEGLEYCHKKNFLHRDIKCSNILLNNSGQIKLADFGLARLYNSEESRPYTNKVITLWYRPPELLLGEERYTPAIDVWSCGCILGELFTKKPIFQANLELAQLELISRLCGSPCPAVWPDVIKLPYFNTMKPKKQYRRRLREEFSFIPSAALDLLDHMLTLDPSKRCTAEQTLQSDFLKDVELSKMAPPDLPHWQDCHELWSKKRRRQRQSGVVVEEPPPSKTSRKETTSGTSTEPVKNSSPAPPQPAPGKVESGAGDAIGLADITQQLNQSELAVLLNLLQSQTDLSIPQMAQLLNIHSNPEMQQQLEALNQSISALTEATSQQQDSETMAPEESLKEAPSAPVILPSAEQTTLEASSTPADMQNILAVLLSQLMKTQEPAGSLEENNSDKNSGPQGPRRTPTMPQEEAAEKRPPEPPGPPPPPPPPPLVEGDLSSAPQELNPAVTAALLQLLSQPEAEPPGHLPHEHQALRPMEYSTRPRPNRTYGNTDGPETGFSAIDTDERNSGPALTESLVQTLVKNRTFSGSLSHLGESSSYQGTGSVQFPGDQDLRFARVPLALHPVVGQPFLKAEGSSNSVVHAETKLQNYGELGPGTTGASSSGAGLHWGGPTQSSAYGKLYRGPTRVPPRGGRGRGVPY
T1 sequence (O75909 whole entry partner): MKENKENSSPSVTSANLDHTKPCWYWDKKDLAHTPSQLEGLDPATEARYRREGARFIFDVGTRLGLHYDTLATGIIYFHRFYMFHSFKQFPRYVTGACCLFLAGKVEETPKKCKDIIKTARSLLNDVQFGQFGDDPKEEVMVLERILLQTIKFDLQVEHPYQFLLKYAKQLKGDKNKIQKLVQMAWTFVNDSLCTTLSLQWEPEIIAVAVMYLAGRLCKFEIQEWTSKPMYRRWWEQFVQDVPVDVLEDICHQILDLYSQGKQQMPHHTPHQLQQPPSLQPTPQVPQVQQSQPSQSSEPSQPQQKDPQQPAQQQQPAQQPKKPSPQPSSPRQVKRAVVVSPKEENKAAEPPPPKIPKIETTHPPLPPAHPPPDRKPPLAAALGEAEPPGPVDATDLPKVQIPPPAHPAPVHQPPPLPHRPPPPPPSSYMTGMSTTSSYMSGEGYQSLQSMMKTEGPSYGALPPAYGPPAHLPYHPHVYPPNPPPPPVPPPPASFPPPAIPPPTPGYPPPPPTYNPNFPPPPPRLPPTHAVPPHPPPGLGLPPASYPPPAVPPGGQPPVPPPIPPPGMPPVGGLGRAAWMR
T1 sequence (Q16531 whole entry partner): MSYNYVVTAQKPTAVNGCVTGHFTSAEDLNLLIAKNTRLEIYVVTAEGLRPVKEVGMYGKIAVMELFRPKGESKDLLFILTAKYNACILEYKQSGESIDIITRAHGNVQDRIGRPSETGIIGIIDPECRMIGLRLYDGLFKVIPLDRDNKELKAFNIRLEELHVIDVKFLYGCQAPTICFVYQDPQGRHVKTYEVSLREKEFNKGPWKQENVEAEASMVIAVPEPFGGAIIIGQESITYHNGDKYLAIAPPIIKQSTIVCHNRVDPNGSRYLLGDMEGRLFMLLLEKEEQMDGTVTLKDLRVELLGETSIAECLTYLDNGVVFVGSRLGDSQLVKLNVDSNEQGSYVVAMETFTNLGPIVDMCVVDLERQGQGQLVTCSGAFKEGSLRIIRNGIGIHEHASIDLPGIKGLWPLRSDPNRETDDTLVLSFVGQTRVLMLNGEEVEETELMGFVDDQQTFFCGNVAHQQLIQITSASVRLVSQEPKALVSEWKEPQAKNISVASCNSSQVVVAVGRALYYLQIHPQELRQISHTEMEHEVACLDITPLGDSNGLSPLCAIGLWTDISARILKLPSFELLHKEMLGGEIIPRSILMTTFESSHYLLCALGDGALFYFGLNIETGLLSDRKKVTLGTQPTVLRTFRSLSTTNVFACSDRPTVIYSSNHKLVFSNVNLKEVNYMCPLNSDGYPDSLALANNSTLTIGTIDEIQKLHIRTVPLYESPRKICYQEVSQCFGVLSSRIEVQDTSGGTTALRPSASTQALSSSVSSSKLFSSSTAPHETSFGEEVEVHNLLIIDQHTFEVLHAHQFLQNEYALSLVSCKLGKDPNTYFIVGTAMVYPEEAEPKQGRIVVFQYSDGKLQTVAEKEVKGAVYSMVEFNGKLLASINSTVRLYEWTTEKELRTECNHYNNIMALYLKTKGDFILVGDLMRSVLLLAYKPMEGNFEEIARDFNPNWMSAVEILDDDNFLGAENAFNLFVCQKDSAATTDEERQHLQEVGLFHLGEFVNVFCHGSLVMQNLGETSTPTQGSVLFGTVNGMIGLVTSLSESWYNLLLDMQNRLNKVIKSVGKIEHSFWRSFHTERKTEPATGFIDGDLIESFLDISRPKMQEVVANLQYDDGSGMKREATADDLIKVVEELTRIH
T1 sequence (Q13619 whole entry partner): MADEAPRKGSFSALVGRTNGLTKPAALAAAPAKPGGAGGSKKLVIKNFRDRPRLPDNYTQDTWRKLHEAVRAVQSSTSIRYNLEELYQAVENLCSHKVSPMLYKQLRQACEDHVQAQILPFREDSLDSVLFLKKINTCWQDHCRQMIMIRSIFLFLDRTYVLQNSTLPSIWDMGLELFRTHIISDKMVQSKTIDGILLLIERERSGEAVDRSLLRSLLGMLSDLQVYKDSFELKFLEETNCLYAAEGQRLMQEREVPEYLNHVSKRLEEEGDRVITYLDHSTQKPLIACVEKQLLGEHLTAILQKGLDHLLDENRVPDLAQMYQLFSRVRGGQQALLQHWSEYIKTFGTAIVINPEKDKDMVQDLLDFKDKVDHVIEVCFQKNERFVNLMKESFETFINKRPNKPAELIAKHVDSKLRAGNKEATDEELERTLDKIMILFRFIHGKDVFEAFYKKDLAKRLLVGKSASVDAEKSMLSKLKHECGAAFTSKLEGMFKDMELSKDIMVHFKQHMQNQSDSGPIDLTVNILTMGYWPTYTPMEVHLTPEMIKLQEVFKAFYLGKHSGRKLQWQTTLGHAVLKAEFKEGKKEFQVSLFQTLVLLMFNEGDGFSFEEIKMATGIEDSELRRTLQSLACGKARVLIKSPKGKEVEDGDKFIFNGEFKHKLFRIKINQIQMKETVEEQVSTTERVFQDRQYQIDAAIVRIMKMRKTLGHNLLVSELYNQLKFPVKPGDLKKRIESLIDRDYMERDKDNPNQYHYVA
T1 sequence (P62877 whole entry partner): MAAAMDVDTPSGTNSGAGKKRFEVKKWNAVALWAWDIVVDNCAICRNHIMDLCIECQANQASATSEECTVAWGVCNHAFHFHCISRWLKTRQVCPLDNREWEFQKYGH
Method: Human Ubiquitin ORF was cloned into pET28a vector with an N-terminal 6xHis tag. The resulting pET28a-6xHis-Ub plasmid was transformed into the E. coli strain BL21 (DE3) and grown at 37°C until OD600 reached ~0.8. His-Ub expression was induced overnight by 0.5 mM IPTG at 18°C. Cells were collected by centrifugation at 4000 g and resuspended with lysis buffer containing 50 mM Tris-HCl, pH 7.5, 500 mM NaCl, 20 mM imidazole, 5% glycerol. Cell lysis was performed by French Press. After 20,000 g centrifugation for 1 hr at 4°C, the supernatant was incubated with Ni-NTA resin. After extensive wash with lysis buffer, His-Ub was eluted from Ni-NTA resin with 50 mM Tris-HCl, pH 7.5, 500 mM NaCl, 300 mM imidazole, 5% glycerol. Fractions containing His-Ub were pooled and concentrated, followed by gel filtration on a Superdex 200 10/300 GL column (GE Healthcare, Chicago, USA) in gel filtration buffer (50 mM Tris-HCl, pH7.5, 10 mM NaCl, 1 mM DTT). Fractions containing His-Ub were pooled and concentrated by a 3 KDa MWCO Ultra centrifugal filter (Amicon), flash frozen with liquid nitrogen, and stored at −80°C before use.
Human ORFs encoding UBA1 (residues 49–1058, NP_003325.2), UBE2G1 (NP_003333.1), UBE2D3 (NP_003331.1), CUL4A (NP_001008895.1) were cloned into pPB-CAG-1xFLAG vector. ORF encoding human RBX1 (NP_055063.1) was cloned into pPB-CAG vector without a tag. […]

[3] = system: A549 cells stably expressing 3xFLAG-CDK12 WT/G731E/G731R; assay: Cell viability assay, A549 cells stably expressing wild-type or G731E/R mutant CDK12; type: cell-based; conditions: Homo sapiens
Method: Seven hundred A549 cells or 1,000 HCT-116 cells in 50 µL of medium were plated per well in 384-well flat clear bottom white polystyrene TC-treated microplates (Corning, Corning, USA). After overnight attachment, cells were dosed with a serial dilution of HQ461 with a D300e digital dispenser (Tecan, Männedorf, Switzerland). Cell survival was measured 72 hr later using CellTiter-Glo luminescent cell viability assay kit (Promega, Madison, USA) following vendor instructions. Luminescence was recorded by EnVison multimode plate reader (PerkinElmer, Waltham, USA). IC50 was determined with GraphPad Prism using baseline correction (by normalizing to DMSO control), the asymmetric (five parameter) equation, and least squares fit.
An ORF encoding CDK12 isoform 2 (NM_015083.3) was PCR amplified from A549 cDNA and cloned into a pCDNA3.1-N-3xFLAG vector which was derived from the pCDNA3.1 vector. G731E and G731R mutations in CDK12 were introduced by overlap extension PCR. After sequencing verification, wild-type and mutant 3xFLAG-CDK12 sequences were subcloned into lentiCas9-Blast (Addgene 52962) by replacing the Cas9 ORF with 3xFLAG-CDK12. The resulting lenti-EF1α−3xFLAG-CDK12-P2A-BSD WT/GE/GR constructs were packaged into lentiviral vectors to transduce A549 cells. Stable cell lines were obtained by selection with 20 µg/ml of blasticidin.

Q: With `Cc1cccc(Nc2nc(CC(=O)Nc3ncc(C)s3)cs2)n1` [HQ461, 2-(2-((6-methylpyridin-2-yl)amino)thiazol-4-yl)-N-(5-methylthiazol-2-yl)acetamide] as the molecule, how does the “Tm of CDK12KD/CCNKΔC wild type or G731E/R mutants” value [1] read?
A: Its value is “increased in an HQ461 concentration-dependent manner”.

Q: And the in vitro polyubiquitination [2]?
A: The in vitro polyubiquitination was “polyubiquitination of CCNK but not CDK12”.

Q: And the IC50 ([3]; CDK12 G731E, read-out: IC50 on the viability of A549 cells stably expressing G731E mutant CDK12)?
A: Its IC50 is 16.9 µM.

Q: And the IC50 ([3]; CDK12 G731R, read-out: IC50 on the viability of A549 cells stably expressing G731R mutant CDK12)?
A: Its IC50 is 22.9 µM.

Q: And the IC50 ([3]; read-out: IC50 on the viability of A549 cells stably expressing wild-type CDK12)?
A: Its IC50 is 1.3 µM.
